Data published in patent US6884802B2, “6-heteroarylphenanthridines” (ALTANA Pharma AG, priority 2000, dated 2005).

Test system: PDE4
Assay: Inhibition of PDE4 activity ([3H]cAMP hydrolysis, cytosol from human neutrophils)
Format: biochemical
Details: 0.5 μM cAMP, Motapizone 1 μM included to suppress PDE3, 37° C.
Protocol: Method for Measuring Inhibition of PDE4 Activity
PDE4 activity was determined as described by Thompson et al. (Adv Cycl Nucl Res 10: 69-92, 1979) with some modifications (Bauer and Schwabe, Naunyn-Schmiedeberg's Arch Pharmacol 311: 193-198, 1980). At a final assay volume of 200 μl (96 well microtiter plates) the assay mixture contained 20 mM Tris (pH 7.4), 5 mM MgCl2, 0.5 μM cAMP, [^3H]cAMP (about 30,000 cpm/assay), the test compound and an aliquot of cytosol from human neutrophils which mainly contains PDE4 activity as described by Schudt et al. (Naunyn-Schmiedeberg's Arch Pharmacol 344: 682-690, 1991); the PDE3-specific inhibitor Motapizone (1 μM) was included to suppress PDE3 activity originating from contaminating platelets. Serial dilutions of the compounds were prepared in DMSO and further diluted 1:100 (v/v) in the assays to obtain the desired final concentrations of the inhibitors at a DMSO concentration of 1% (v/v) which by itself only slightly affected PDE4 activity.
After preincubation for 5 min at 37° C., the reaction was started by the addition of substrate (cAMP) and the assays were incubated for further 15 min at 37° C. 50 μl of 0.2 N HCl was added to stop the reaction and the assays were left on ice for about 10 min. Following incubation with 25 μg 5′-nucleotidase (Crotalus atrox snake venom) for 10 min at 37° C., the assays were loaded on QAE Sephadex A-25 (1 ml bed volume). The columns were eluted with 2 ml of 30 mM ammonium formiate (pH 6.0) and the eluate was counted for radioactivity. Results were corrected for blank values (measured in the presence of denatured protein) which were below 5% of total radioactivity. […] The IC50-values for the compounds according to the invention for the inhibition of the PDE4 activity were determined from the concentration-inhibition curves by nonlinear-regression.

SMILES	Inhibition of PDE4 activity [measured as −logC50 (mol/l)]
COc1cc2c(cc1OC)[C@@H]1CCCC[C@@H]1N=C2c1cccs1 (relative stereo) [Compound 7, cis-8,9-Dimethoxy-6-(thiophen-2-yl)-1,2,3,4,4a,10b-hexahydrophenanthridine]	8.14 −log(mol/l)
COc1cc2c(cc1OC)[C@@H]1CCCC[C@@H]1N=C2c1ccc(C)s1 (relative stereo) [Compound 8, cis-8,9-Dimethoxy-6-(5-methyl-thiophen-2-yl)-1,2,3,4,4a,10b-hexahydrophenanthridine]	8.19 −log(mol/l)
COc1cc2c(cc1OC)[C@@H]1CCCC[C@@H]1N=C2c1ccsc1 (relative stereo) [Compound 9, cis-8,9-Dimethoxy-6-(thiophen-3-yl)-1,2,3,4,4a,10b-hexahydrophenanthridine]	7.45 −log(mol/l)
COc1cc2c(cc1OC)[C@@H]1CCCC[C@@H]1N=C2c1cc2ccccc2[nH]1.O=C(O)C(F)(F)F (relative stereo) [Compound 10, cis-8,9-Dimethoxy-6-(1H-indol-2-yl)-1,2,3,4,4a,10b-hexahydrophenanthridine trifluoroacetate]	8.19 −log(mol/l)
COc1cc2c(cc1OC)[C@@H]1CCCC[C@@H]1N=C2c1cc2cc(F)ccc2[nH]1.O=C(O)C(F)(F)F (relative stereo) [Compound 11, cis-8,9-Dimethoxy-6-(5-fluoro-1H-indol-2-yl)-1,2,3,4,4a,10b-hexahydrophenanthridine trifluoroacetate]	8.14 −log(mol/l)
COc1ccc2cc(C3=N[C@H]4CCCC[C@H]4c4cc(OC)c(OC)cc43)[nH]c2c1.O=C(O)C(F)(F)F (relative stereo) [Compound 12, cis-8,9-Dimethoxy-6-(6-methoxy-1H-indol-2-yl)-1,2,3,4,4a,10b-hexahydrophenanthridine trifluoroacetate]	8.27 −log(mol/l)
COc1cc2c(cc1OC)[C@@H]1CCCC[C@@H]1N=C2c1ccc2ccccc2n1 (relative stereo) [Compound 15, cis-8,9-Dimethoxy-6-(quinolin-2-yl)-1,2,3,4,4a,10b-hexahydrophenanthridine]	7.68 −log(mol/l)
COc1cc2c(cc1OC)[C@@H]1CCCC[C@@H]1N=C2c1occc1C (relative stereo) [Compound 16, cis-8,9-Dimethoxy-6-(3-methyl-furan-2-yl)-1,2,3,4,4a,10b-hexahydrophenanthridine]	7.42 −log(mol/l)
COc1cc2c(cc1OC)[C@@H]1CCCC[C@@H]1N=C2c1cc2ccccc2s1 (relative stereo) [Compound 17, cis-8,9-Dimethoxy-6-(benzo[b]thiophen-2-yl)-1,2,3,4,4a,10b-hexahydrophenanthridine]	8.84 −log(mol/l)
COc1cc2c(cc1OC)[C@@H]1CCCC[C@@H]1N=C2c1oc2ccccc2c1C (relative stereo) [Compound 20, cis-8,9-Dimethoxy-6-(3-methyl-benzofuran-2-yl)-1,2,3,4,4a,10b-hexahydrophenanthridine]	8.53 −log(mol/l)
COc1cc2c(cc1OC)[C@@H]1CCCC[C@@H]1N=C2c1cc2cccc(OC)c2o1 (relative stereo) [Compound 21, cis-8,9-Dimethoxy-6-(7-methoxy-benzofuran-2-yl)-1,2,3,4,4a,10b-hexahydrophenanthridine]	8.51 −log(mol/l)
COc1ccc2oc(C3=N[C@H]4CCCC[C@H]4c4cc(OC)c(OC)cc43)cc2c1 (relative stereo) [Compound 23, cis-8,9-Dimethoxy-6-(5-methoxy-benzofuran-2-yl)-1,2,3,4,4a,10b-hexahydrophenanthridine]	8.33 −log(mol/l)
COc1cc2c(cc1OC)[C@@H]1CCCC[C@@H]1N=C2c1ccnc2ccccc12 [Compound 1, (−)-cis-8,9-Dimethoxy-6-quinolin-4-yl-1,2,3,4,4a,10b-hexahydrophenanthridine]	7.4 −log(mol/l)
